How the values were obtained:
[1] = test system: RWPE1 cells; assay: RTCA impedance proliferation assay, RWPE1; type: cell-based; conditions: 10 μM; serum free medium
Experimental: (6A-6B) PNT1A cells were plated onto xCelligence E-plates at 5×10^4 cells per well in media supplemented with 10% FBS (6A) or CSS (6B). Cells were allowed to attach overnight and treated with vehicle (DMSO) or 10 μM of indicated compounds. Cellular impedance was monitored continuously with 30 min intervals. (6C) RWPE1 cells were plated at 5×10^4 cells per well in serum free medium supplemented with Epidermal Growth Factor (EGF) and Bovine Pituitary Extract ([…]) onto E-plates and treated with 10 μM of indicated compounds as indicated. […] Proliferation assays were done using Roche DP Real Time Cell Analyzer (RTCA), as described by the manufacturer. Background impedance was established after incubating E-plates (Acea Biosciences, San Diego, Calif.) with 50 μL media at room temperature for 30 min and placed in RTCA. Cells were then seeded in 100 μL per well. Cells attached overnight and then treated. During attachment stage and after treatment impedance was measured every 30 min. Impedance is represented by cell index and is calculated as follows: CI=(Zi−Zo)/15Ω where Zi is impedance at an individual time point, and Zo is the background impedance. Average CI was calculated from four wells per treatment at each time point and normalized to the impedance immediately after compound addition.

[2] = test system: BER reconstituted with purified Pol β, FEN1, and LIG I; assay: Secondary gel-based BER assay reconstituted with purified core BER enzymes; type: biochemical; conditions: 10 μM compound, THF substrate
Experimental: The secondary screening assay was performed as described below in the “Materials and Methods” section. Lane 1 represents the substrate only. Lane 2 indicates the reaction mixture with 5 nM APE1. Lanes 3 and 4 correspond to the reaction mixture with 5 nM APE1, 10 nM pol β, 10 nM FEN1 and 20 nM LIG I in the absence and presence of dimethylsulfoxide (DMSO). Lanes 5 through 19 correspond to the reaction mixture with 5 nM APE1, 10 nM pol β, 10 nM FEN1 and 20 nM LIG I in the presence of indicated compounds. The experiments were repeated at least three times. A representative gel is illustrated.
The hit compounds were subject to secondary assays to determine their ability to reduce the BER capacity when reconstituted with purified core BER enzymes, as well as their inhibitory effects on individual BER enzymes including pol FEN1 and LIG I. The effect of hit compounds on BER capacity and BER enzymes was examined using a denaturing sequencing gel-based assay. 10 μM hit compounds were incubated with 10 nM pol β, 10 nM FEN1 and 20 nM LIG I in BER reaction buffer containing 50 mM Tris-HCl (pH 7.5), 50 mM KCl, 0.1 mM EDTA, 0.1 mg/ml bovine serum albumin, and 0.01% Nonidet P-40 in the presence of 5 mM Mg^2+ and 2 mM ATP. The compounds were initially preincubated with a BER enzyme at varying concentrations for 1 h with rotation. This was followed by the addition of 25 nM ^32P-labeled substrate containing an abasic site, which was precut with 25 or 50 nM APEI. The reaction mixture (20 μL) was incubated at 37° C. for 30 min, and the reaction was terminated by 50 mM EDTA. Substrates, products, and unrepaired BER intermediates were separated by 15% urea-denaturing sequencing gel and detected by a Pharos FX Plus PhosphorImager (Bio-Rad, Hercules, Calif.).
Among the 26 identified compounds, nine were DNA intercalators or inhibitors of human DNA topoisomerases and were excluded from further studies. Thus, […] FDA approved drugs were selected for further testing. To further confirm the inhibitory effects of the lead compounds on BER, the effects of the compounds on BER reactions reconstituted with purified BER core enzymes were initially determined.

[3] = test system: RWPE1 cells; assay: Cell Titer Glo cell viability assay, RWPE1; type: cell-based; conditions: 10 μM; after 24 h and 48 h; serum free medium with EGF and BPE
Experimental: FIGS. 4A-4B show cellular toxicity of lead compounds in nonmalignant androgen independent prostate-derived cell lines. (4A) PNT1A cells were plated in a 96-well plate at 1×10^4 cell/well in the presence of FBS or CSS. Cells were allowed to attach overnight and were treated with either vehicle (DMSO) or 10 μM of indicated compound. At 24 and 48 h, cellular viability was compared using the Cell Titer Glo Luminescent Cell Viability kit. (4B) RWPE1 cells were plated in a 96-well plate at 1×10^4 cells/well using the specified serum free media. Cells were allowed to attach overnight and treated with 10 μM of indicated compound.
Cell viability was determined using the Cell Titer Glo Cell Viability Assay (Promega, Madison, Wis.), as recommended by manufacturer. All experiments were performed in quadruplicate.
Next, whether the same concentration of compounds decreases the viability of the AR negative and nonmalignant prostate derived cells, PNT1A and RWPE1, was tested.

C=C1/C(=C\C=C2/CCC[C@]3(C)[C@@H]([C@H](C)/C=C/[C@@H](O)C4CC4)CC[C@@H]23)C[C@@H](O)C[C@@H]1O [calcipotriene]
RWPE1 proliferation [1]: slightly inhibited | BER capacity and production of the BER repair product [2]: significantly reduced BER capacity | RWPE1 cell viability [3]: significantly decreased

CC(C)(O/N=C(\C(=O)N[C@@H]1C(=O)N2C(C(=O)[O-])=C(C[n+]3ccccc3)CS[C@H]12)c1csc(N)n1)C(=O)O [ceftazidime]
BER capacity and production of the BER repair product [2]: significantly reduced BER capacity

C[C@@H]1[C@H](O)[C@@H](C)/C=C/C=C/CC/C=C/C=C/C=C/C=C/C(O[C@H]2O[C@H](C)[C@@H](O)[C@H](N)[C@@H]2O)CC2O[C@](O)(CC(O)C(O)CCC(O)CC(O)CC(O)CC(=O)O[C@H]1C)CC(O)C2C(=O)O (stereo partly shown) [nystatin]
BER capacity and production of the BER repair product [2]: significantly reduced BER capacity

CC(=O)Oc1cc2c(s1)CCN(C(C(=O)C1CC1)c1ccccc1F)C2 (stereo not shown) [prasugrel]
BER capacity and production of the BER repair product [2]: significantly reduced BER capacity | RWPE1 cell viability [3]: significantly decreased
